According to patent US9000047B2, “Compound inhibiting activation of the enzyme Erk 1/2 to be used in the treatment of neurodegenerative illnesses” (Farmalider, S.A., priority 2010, dated 2015):

What was measured:
[1] = system: Hippocampal neurons; test: TUNEL assay for the detection of cellular apoptosis induced by β-amyloid peptide in hippocampal neurons; format: cell-based, mouse
Protocol: In a second in vitro assay, the apoptosis in nerve cells was measured by means of the TUNEL technique described in R. Sgonc et al., Trends Genetics, 1994, 10, 41-42. Apoptosis is the function that controls the death of a biological unit in a programmed manner.
Hippocampal neurons (obtained as described in Example 1) were cultured in 24 well plates (Nunc) at a density of 100,000 cells/well.
After 7 days under culture, β-amyloid peptide 1-40 (Aβ1-40) (Amyloid βProtein (1-40) trifluoroacetate salt, Bachem) (20 μM) was added and the cells were incubated for 72 h.
In order to study the inhibitory effect of the compound of formula (I), the cells were pre-incubated for 15 minutes with said compound at a concentration of 30 μM prior to the addition of the β-amyloid peptide, Aβ1-40.
After 72 h, the cells were fixed and the apoptotic neurons were detected by means of the TUNEL technique (Sgonc, R. et al. (1994) Trends Genetics 10, 41-42) with the in situ “cell death detection” kit, POD (Roche). In said kit, fluorescein-dUTP was used to label the DNA chain cleavage, which makes it possible to directly visualise the staining of the nuclei of the apoptotic neurons in the fluorescence microscope.
Parallel to this, the neuronal nuclei were stained with a specific monoclonal antibody (mouse anti-neuronal nuclei (NeuN) monoclonal antibody, 0.5 μg/ml, Chemicon) and a secondary anti-mouse Cy3 antibody (3.75 μg/ml, Jackson Immunoresearch Laboratories).
The quantification was performed by counting the positive nuclei following the TUNEL staining in 3 random fields and expressed as the % of dead neurons with respect to the total number of neurons in each field. Each inhibitor was assayed in triplicate in 4 independent experiments.
As a negative control, cells cultured for the same period of time, without treatment with the β-amyloid peptide (measurement of baseline spontaneous apoptosis), were used. As a positive control of 100% apoptosis, treatment with DNAse (20 U/ml) was used, following the procedure indicated in the commercial kit.
The value of the positive control (treatment with DNAse) was considered to be 100 and the rest of the measurements were adjusted in relation to this value.

[2] = system: protein kinase Erk 1/2; test: ELISA assay for the detection of the tPA-induced activation of Erk 1/2 in primary hippocampal neurons; format: cell-based, mouse; settings: for normalised Erk 1/2 values, Mean value (arbitrary units): phospho-Erk 1/2 vs total Erk 1/2, 15 minutes pre-incubation with inhibitor, then tPA 20 μg/ml for 1 hour, tPA alone = 1, negative control 0.61
Description: The capacity to inhibit the activation of the protein kinase Erk 1/2 presented by the Compound of formula (I) has been determined by means of the ELISA (Enzyme-Linked Immunoadsorbent Assay) technique, as described in the Examples section.
In the ELISA assays, neurons from primary cultures of hippocampi isolated from mouse embryos (day 16.5 of gestation) were used, following the protocol described by Goslin and Banker (Goslin K and Banker G (1991) Culturing Nerve Cells, MIT Press, Cambridge, Mass.). This culture was used because the hippocampus is the main region affected in Alzheimer's disease and they are non-transformed cells.
10,000 cells/well were seeded in 96 well plates (Nunc) pre-treated with poly-L-Lys (SIGMA) and left under culture for 7 days.
The treatment with tPA was performed by adding it at 20 μg/ml (without changing the medium), for 1 hour. The treatment with the inhibitor, the compound of formula (I), was performed by means of a 15 minutes pre-incubation prior to the addition of tPA, as described above.
Following the treatments, the cells were fixed with methanol at a temperature of −20° C. for 5 min, and an ELISA assay was performed in order to detect the activation of Erk 1/2.
The wells were washed three times with TBST (Tris-buffered saline, 0.1% Triton® X-100) and blocked with 5% horse serum in TBST for 1 h at 37° C. They were once again washed with TBST, […] of the corresponding primary antibody (anti-phospho-Erk 1/2 Cell Signalling, catalogue number 9101, 1/500 or total Erk 1/2, Upstate catalogue number 06-182 1/1000 in 3% bovine serum albumin in TBST) were added and it was incubated overnight at 4° C.
After 4 washings with TBST, 0.45 μg/ml of the secondary alkaline-phospatase-coupled anti-rabbit antibody (DAKO, 1/800 in 3% bovine serum albumin in TBST) were added and it was kept for 1 h at 37° C.
4 washings with TBST were performed and it was developed using 4-methylumbelliferyl phosphate as the substrate (1 mg/ml in 0.2 M triethanolamine at pH 8.5) for 30 min at room temperature in the dark.
The results were quantified by means of fluorescence reading using the Cytofluor 235 fluorometer with an excitation filter of 360/40 and an emission filter of 460/40.
All the treatments were performed in sextuplicate in each experiment: 3 points for phosphorylated Erk 1/2 and 3 points for total Erk 1/2. At least 4 independent experiments were performed.
The following were used as controls: • 1) cells without treatment (negative control), • 2) cells treated with tPA and without an inhibitor (positive control), and • 3) cells incubated only with the secondary antibody and the substrate (negative control in the ELISA technique). […]

[3] = 15 minutes pre-incubation with inhibitor (compound of formula (I) 30 μM), then Aβ1-40 20 μM for 72 h, DNAse positive control = 100, negative control 0.4

Molecule	apoptosis of nerve cells, Mean value (%) of dead neurons [1, 3] [%]	normalised Erk 1/2 values, Mean value (arbitrary units) [2] [arbitrary units]	apoptosis of nerve cells, Mean value (%) of dead neurons ([1]; Aβ1-40 20 μM alone for 72 h, no inhibitor, DNAse positive control = 100) [%]	inhibition of the apoptosis induced by the β-amyloid peptide (in words) ([1]; TUNEL, neurons cultured in vitro)	inhibition of the activation of the protein kinase Erk 1/2 induced by tPA (in words) ([2]; ELISA, hippocampal neurons)
CC12CC3CC(C)(C1)CC(N)(C3)C2 [Memantine, memantine]	4	0.75			
C[C@]12N[C@H](Cc3ccccc31)c1ccccc12 [Dizocilpine (MK-801), dizocilpine]		0.73			
Amyloid βProtein (1-40) trifluoroacetate salt [β-amyloid peptide (Aβ1-40)]			83.8		
NCC12CCC3CC(CC3C1)C2 (centres unmarked) [Compound of formula (I)]	2.8	0.61		efficiently inhibited	effectively inhibits
